In US9242977B2, “Trk-inhibiting compound” (ONO PHARMACEUTICAL CO., LTD., priority 2012, dated 2016):

Legend:
[1] = system: NGF-induced vascular hyper permeability; experiment: Suppression of rat NGF-induced vascular hyper permeability (in vivo test, Evans Blue); settings: oral, 12 hours after administration, read-out: Rates of Suppression for Vascular Hyper Permeability (%)
Protocol: TrkA-inhibiting activity of the present compound was evaluated in vivo. The present compound dissolved in a medium was orally administered (adminstered volume: 5 mL/kg) to male CD(SD)IGS rats (7- to 9-week old, Charles River laboratories Japan, Inc.) shaved on the back. A medium was orally administered (adminstered volume: 5 mL/kg) to the control and normal groups. After 6 or 12 hours of administration, 3 μg/mL of a NGF (Mouse 2.5s, Natural, Invitrogen) solution prepared in 0.1% BSA (Sigma-Aldrich)-containing saline was intracutaneously administered (dose; 50 μL/site) at 3 sites on the back of animals under halothane anesthesia. For the normal group, 0.1% BSA-containing saline was intracutaneously administered (dose; 50 μL/site) at 3 sites on the back. Immediately after intracutaneous administration, 1% Evans Blue (Tokyo Chemical Industry Co., Ltd.) was administered intravenously from tail (adminstered volume: 3 mL/kg). After 10 minutes of administration, the animals were sacrificed by bleeding due to incision of the abdominal aorta. The sites of intracutaneous administration on the back (3 sites) were excised and the skin samples were respectively transferred to the wells in a 48-well plate (Asahi Glass Co., Ltd.). Formamide (0.8 mL/well) was added to the plate and the plate was sealed and incubated overnight at 60° C. The formamide extraction solution (200 μL) was transferred to a 96-well plate and the absorbance (wavelength: 620 nm) of Evans Blue extracted in formamide was measured on an absorbance microplate reader (SpectraMAX 190, Molecular Devices Japan, K.K.). Standard samples of Evans Blue dissolved in formamide (0, 0.78, 1.56, 3.13, 6.25, 12.5, 25 and 50 μg/mL) were measured at the same time for the absorbance (wavelength: 620 nm) to generate a calibration curve. Based on the calibration curve and the absorbances of samples, the concentrations of Evans Blue in the sample was calculated. The concentrations of Evans Blue for three skin samples collected from one aminal were averaged to obtain the vale for the animal. The rate of suppression for rat NGF-induced vascular hyper permeability of the present compound was calculated according to the following Equation 4: Suppression rate (%)=(1−(AX−AN)/(AC−AN)}×100 Equation 4
wherein AX: the concentration of Evans Blue of the test compound (an average value of 3 samples from one animal);
AN: the concentration of Evans Blue of the normal group (an average value of 3 samples from one animal);
AC: the concentration of Evans Blue of the control group (an average value of 3 samples from one animal).

TrkA = TrkA (Homo sapiens (Human), UniProt P04629); experiment: Measurement of TrkA enzyme-inhibiting activity (LanthaScreen TR-FRET kinase assay); format: biochemical; settings: final ATP 150 μM, read-out: TrkA inhibitory activity (IC50; μM)
Sequence of TrkA (P04629 33-796): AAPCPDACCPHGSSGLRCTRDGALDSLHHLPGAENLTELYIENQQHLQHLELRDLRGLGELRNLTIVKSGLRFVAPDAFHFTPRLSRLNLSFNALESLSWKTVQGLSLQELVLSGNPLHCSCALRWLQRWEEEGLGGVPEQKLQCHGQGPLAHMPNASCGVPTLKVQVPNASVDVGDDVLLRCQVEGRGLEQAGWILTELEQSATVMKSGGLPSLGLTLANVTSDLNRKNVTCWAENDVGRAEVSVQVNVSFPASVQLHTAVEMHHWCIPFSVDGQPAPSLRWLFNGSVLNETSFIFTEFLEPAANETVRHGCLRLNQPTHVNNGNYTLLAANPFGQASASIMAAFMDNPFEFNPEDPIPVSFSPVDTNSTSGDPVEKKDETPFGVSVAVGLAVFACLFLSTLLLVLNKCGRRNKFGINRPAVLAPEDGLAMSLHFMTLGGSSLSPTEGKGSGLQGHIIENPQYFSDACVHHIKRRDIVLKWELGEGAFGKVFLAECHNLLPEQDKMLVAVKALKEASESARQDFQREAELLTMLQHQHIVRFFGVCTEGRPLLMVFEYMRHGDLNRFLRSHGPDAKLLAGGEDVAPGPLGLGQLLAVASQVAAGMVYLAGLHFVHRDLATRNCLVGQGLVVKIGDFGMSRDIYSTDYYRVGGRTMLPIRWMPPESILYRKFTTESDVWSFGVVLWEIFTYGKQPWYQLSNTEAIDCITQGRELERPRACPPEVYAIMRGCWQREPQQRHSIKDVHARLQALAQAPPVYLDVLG
Protocol: TrkA-inhibiting activity was measured according to the following method using LanthaScreen™ kinase assay reagents (Invitrogen; Fluorescein-Poly GT, LanthaScreen™ Tb-PY20 and TR-FRET Dilution Buffer), TrkA (Invitrogen), ATP (Sigma-Aldrich), a kinase reaction buffer (50 mM HEPES buffer (Sigma-Aldrich) (pH 7.5) containing 0.01% Brij35 (Sigma-Aldrich), 10 mM MgCl2 (Sigma-Aldrich) and 1 mM EGTA (Sigma-Aldrich)) and 0.5 M EDTA (pH 8.0) (Invitrogen).
The present compound was dissolved in dimethylsulfoxide (hereinafter abbreviated as DMSO) to prepare a 10 mM solution. The test compound at 10 mM was distributed into a 96-well plate and serially diluted with DMSO with the geometrical ratio of 3. The serial dilutions (DMSO solutions) were diluted with the kinase reaction buffer to 20-fold to prepare solutions of the present compound with 5-times concentrations (DMSO concentration: 5%). TrkA was diluted with the kinase reaction buffer to prepare a solution at 38.5 ng/mL (enzyme solution). Adenosine triphosphate (hereinafter abbreviated as ATP) was preliminarily diluted in distilled water to prepare a 10 mM solution which was then divided into containers and stored at −20° C. The 10 mM ATP solution and Fluorescein-Poly GT were diluted in the kinase reaction buffer to prepare a solution containing […] of ATP and 500 nM of Fluorescein-Poly GT (ATP-substrate solution). EDTA (0.5 M; pH 8.0) and LanthaScreen™ Tb-PY20 were diluted in the TR-FRET Dilution Buffer to prepare a solution containing 20 mM of EDTA and 4 nM of LanthaScreen™ Tb-PY20 (detection buffer).
The solutions of the present compound (5 μL/well) and the enzyme solution (10 μL/well) were added to a 96-half well assay plate and the plate was shaken at room temperature for 10 minutes on a plate shaker (IKA™ MTS2/4 digital microplate, IKA Japan K.K.). As a control and a blank, the kinase reaction buffer containing 5% DMSO (5 μL/well) was added in place of the solution of the present compound. As a blank, the kinase reaction buffer (10 μL/well) was added in the place of the enzyme solution. The ATP-substrate solution (10 μL/well) was then added to the plate to initiate kinase reaction and the plate was shaken in the dark at room temperature for 1 hour on the plate shaker (final concentration of TrkA: 15.4 ng/mL, final concentration of the substrate: 200 nM and final concentration of ATP: 150 μM). Kinase reaction was terminated by adding the detection buffer (25 μL/well) to the plate and the plate was shaken in the dark at room temperature for 30 minutes on the plate shaker. On an Analyst GT (Molecular Devices Japan, K.K.) the wells were irradiated with excitation light at 340 nm and the fluorescence intensities at 520 nm and 495 nm were measured. The fluorescence intensity at 520 nm for each well was divided by the fluorescence intensity at 495 nm to calculate the time resolved fluorescence resonance energy transfer (TR-FRET) ratio.
The inhibition rate (%) of the present compound was calculated according to the following Equation 1: Inhibition rate (%)={1−(AX−AB)/(AC−AB)×100 Equation 1
wherein AX: the TR-FRET ratio when the present compound is added;
AB: the TR-FRET of the blank; and
AC: the TR-FRET of the control.
The value for 50% inhibition by the present compound (IC50 value) was calculated from the inhibition curve based on the inhibition rate of the present compound at respective concentrations.

SMILES	inhibition in vivo at 1 mg/kg [1] [%]	IC50 (TrkA) [µM]
CCNc1ncc(-c2ccc(Oc3ncc(NC(=O)Nc4cc(C(F)(F)F)cnc4-c4ccc(C)cc4)cn3)cc2)s1 [Example 23, 1-(2-{4-[2-(ethylamino)-1,3-thiazol-5-yl]phenoxy}-5-pyrimidinyl)-3-[2-(4-methylphenyl)-5-(trifluoromethyl)-3-pyridinyl]urea]	78	0.09
CCNc1ncc(-c2ccc(Oc3ccc(NC(=O)Nc4cc(C(F)(F)F)cnc4-c4ccc(C)c(C)c4)cn3)cc2)s1 [Example 34, 1-[2-(3,4-dimethylphenyl)-5-(trifluoromethyl)-3-pyridinyl]-3-(6-{4-[2-(ethylamino)-1,3-thiazol-5-yl]phenoxy}-3-pyridinyl)urea]	75	0.18
CCNc1ncc(-c2ccc(Oc3ncc(NC(=O)Nc4cc(C(F)(F)F)cnc4Oc4ccccc4)cn3)cc2)s1 [Example 48, 1-(2-{4-[2-(ethylamino)-1,3-thiazol-5-yl]phenoxy}-5-pyrimidinyl)-3-[2-phenoxy-5-(trifluoromethyl)-3-pyridinyl]urea]	71	0.12
O=C(Nc1cnc(Oc2ccc(-c3cnc(N4CCCC4=O)s3)cc2)nc1)Nc1cc(C(F)(F)F)cnc1-c1ccccc1 [Example 54, 1-(2-{4-[2-(2-oxo-1-pyrrolidinyl)-1,3-thiazol-5-yl]phenoxy}-5-pyrimidinyl)-3-[2-phenyl-5-(trifluoromethyl)-3-pyridinyl]urea]	88	0.04
Cc1cccc(-c2ncc(C(F)(F)F)cc2NC(=O)Nc2cnc(Oc3ccc(-c4cnc(N5CCCC5=O)s4)cc3)nc2)c1 [Example 57, 1-[2-(3-methylphenyl)-5-(trifluoromethyl)-3-pyridinyl]-3-(2-{4-[2-(2-oxo-1-pyrrolidinyl)-1,3-thiazol-5-yl]phenoxy}-5-pyrimidinyl)urea]	78	0.03
CCCNc1ncc(-c2ccc(Oc3ncc(NC(=O)Nc4cc(C(F)(F)F)ccc4Cl)cn3)cc2)s1 [Example 85-117, 1-[2-chloro-5-(trifluoromethyl)phenyl]-3-(2-{4-[2-(propylamino)-1,3-thiazol-5-yl]phenoxy}-5-pyrimidinyl)urea]	74	0.02
